Data on 55 compounds can be found in ChEMBL document CHEMBL2363022, “Malaria Box Schistosomiasis Screening Data” (2013).

Type in all cases: functional
Common to all, as to set-up: scale not given here

Assay [1] deals with Schistosoma mansoni.
Assay [2] has as its system Schistosoma mansoni. This is another data set of the same source.
For assay [3], the system named is Schistosoma mansoni. This is another data set of the same source.

As to `CCOc1ccc(C2N(C)c3ccccc3N2C)cc1`, the values for the Toxicity in the assay on Schistosoma mansoni [1], in the assay on Schistosoma mansoni [2] and in the assay on Schistosoma mansoni [3] were 0, 0 and 2, respectively.
As for `N#Cc1nc(Cc2cccc3ccccc23)oc1N1CCN(C(c2ccccc2)c2ccccc2)CC1`, the Toxicity with Schistosoma mansoni [1], in the assay on Schistosoma mansoni [2] and with Schistosoma mansoni [3] was 0 throughout.
On to `OC(CNCC1CCCO1)Cn1c2ccc(Cl)cc2c2cc(Cl)ccc21` (stereo not given), for which the Toxicity with Schistosoma mansoni [1], with Schistosoma mansoni [2] and in the assay on Schistosoma mansoni [3] was 0 throughout.
As for `CC1CCN(Cc2c(O)ccc3cc(-c4nc5ccccc5s4)c(=O)oc23)CC1`, the Toxicity in the assay on Schistosoma mansoni [1], in the assay with Schistosoma mansoni [2] and in the assay on Schistosoma mansoni [3] was 0 each time.
Consider `CCOc1ccccc1NC(=O)CN1CCN(C(=O)c2ccco2)CC1`, for which the Toxicity in the assay with Schistosoma mansoni [1], with Schistosoma mansoni [2] and in the assay on Schistosoma mansoni [3] was 0 in each case.
Take `CCOc1ccccc1CN1CCc2nc3cc(C(C)(C)C)nn3c(O)c2C1`: the figures for the Toxicity in the assay on Schistosoma mansoni [1], in the assay with Schistosoma mansoni [2] and in the assay on Schistosoma mansoni [3] were 2, 2 and 0, respectively.
In the case of `Cc1ccc(Nc2nc(-c3ccccn3)cs2)cc1`, the Toxicity in the assay on Schistosoma mansoni [1], in the assay with Schistosoma mansoni [2] and in the assay with Schistosoma mansoni [3] was 0 each time.
Consider `CCOc1ccc(-c2nc(NC(=O)c3cccc(S(C)(=O)=O)c3)sc2C)cc1`, for which the Toxicity in the assay with Schistosoma mansoni [1], with Schistosoma mansoni [2] and in the assay on Schistosoma mansoni [3] was 0 in each case.
On to `COc1ccc(N2CCN(C(CNC(=O)CC(C)(C)C)c3ccc4c(c3)OCO4)CC2)cc1` (stereo not given), for which the Toxicity with Schistosoma mansoni [1], in the assay with Schistosoma mansoni [2] and in the assay on Schistosoma mansoni [3] was 0 in each case.
For `COCCn1c(C)nc2ccccc2c1=O`, the Toxicity with Schistosoma mansoni [1], in the assay with Schistosoma mansoni [2] and in the assay on Schistosoma mansoni [3] was 0 each time.
`Cc1ccc(-c2cc3c(SCC(=O)Nc4cc(C(F)(F)F)ccc4Cl)nccn3n2)cc1`: the Toxicity in the assay on Schistosoma mansoni [1], with Schistosoma mansoni [2] and in the assay on Schistosoma mansoni [3] was 0 throughout.
Turning to `Cc1ccc(-c2cc(C(=O)Nc3ccc(S(=O)(=O)N4CCCCC4)cc3)[nH]n2)c(O)c1`, the Toxicity with Schistosoma mansoni [1], in the assay on Schistosoma mansoni [2] and in the assay on Schistosoma mansoni [3] was 0 in each case.
For the compound `CCCCCCC(O)(c1ccc(F)cc1)C(CN1CCOCC1)c1ccccc1.Cl` (stereo not given), the Toxicity in the assay with Schistosoma mansoni [1], with Schistosoma mansoni [2] and in the assay with Schistosoma mansoni [3] was 0 in each case.
Turning to `CCOC(=O)C1(Cc2ccccc2)CCN(Cc2cccc(OC)c2O)CC1`, the Toxicity is on record as 2 in the assay on Schistosoma mansoni [1], 1 in the assay on Schistosoma mansoni [2] and 1 in the assay on Schistosoma mansoni [3].
Regarding `CCc1ccc(Nc2cc(C)c3ccc(O)cc3n2)cc1.Cl`, the Toxicity with Schistosoma mansoni [1] is recorded as 3; in the assay with Schistosoma mansoni [2], 2; with Schistosoma mansoni [3] it was 2.
For `Cc1cc(Nc2ccc(Cl)cc2)n2nc(C(F)(F)F)nc2n1`, the Toxicity with Schistosoma mansoni [1], with Schistosoma mansoni [2] and with Schistosoma mansoni [3] was 0 throughout.
As for `CCCCOC(=O)c1ccc(Nc2cc(C)nc3ccc(OC)cc23)cc1`, the values for the Toxicity in the assay with Schistosoma mansoni [1], in the assay with Schistosoma mansoni [2] and with Schistosoma mansoni [3] were 4, 0 and 2, respectively.
In the case of `CCOC(=O)C1=C(C)N=c2sc(=Cc3cc(Cl)ccc3O)c(=O)n2C1c1ccc(OC)cc1` (stereo not given), the Toxicity in the assay on Schistosoma mansoni [1], in the assay on Schistosoma mansoni [2] and with Schistosoma mansoni [3] was 0 in each case.
Regarding `CCOc1ccc(Nc2c3ccccc3nc3ccccc23)cc1.Cl`, the values for the Toxicity in the assay on Schistosoma mansoni [1], in the assay on Schistosoma mansoni [2] and in the assay with Schistosoma mansoni [3] were 4, 3 and 2, respectively.
Taken in the same sequence, the figures for `COc1cc(SC)ccc1C(=O)N1CCCC(C)C1` (stereo not given) were 0, 0 and 0.
As to `Cc1ccc(Cl)cc1N1CCN(CCCNC(=O)C2CCN(c3nc4ccccc4[nH]3)CC2)CC1`, the Toxicity came out at 3 with Schistosoma mansoni [1], 0 in the assay with Schistosoma mansoni [2] and 0 with Schistosoma mansoni [3].
Consider `FC(F)(F)c1cccc(CNC2CCN(CCc3ccccc3)CC2)c1`, for which the Toxicity in the assay with Schistosoma mansoni [1], in the assay on Schistosoma mansoni [2] and in the assay with Schistosoma mansoni [3] was 0 each time.
Consider `COc1ccc(C(C)=O)cc1N1C(=O)C2C(C1=O)C1(c3ccccc3)C(=O)C2(c2ccccc2)C(c2ccc(C)cc2)=C1c1ccc(C)cc1` (stereo not given), for which the Toxicity with Schistosoma mansoni [1], with Schistosoma mansoni [2] and in the assay on Schistosoma mansoni [3] was 0 each time.
As for `COc1ccc(C(=O)C2CC2c2ccc(Cl)cc2)cc1` (stereo not given), the Toxicity with Schistosoma mansoni [1], with Schistosoma mansoni [2] and in the assay with Schistosoma mansoni [3] was 0 in each case.
Turning to `C[n+]1c2ccccc2nc2ccc(NCCO)cc21`, the Toxicity in the assay with Schistosoma mansoni [1] is on record as 3; in the assay with Schistosoma mansoni [2] it was 0; with Schistosoma mansoni [3], 0.
Consider `COc1cccc(C(=O)Nc2ccc(-c3nc4ccccc4[nH]3)cc2)c1`, for which the Toxicity in the assay on Schistosoma mansoni [1], with Schistosoma mansoni [2] and in the assay with Schistosoma mansoni [3] was 0 in each case.
With `Cc1ccc(-c2cc3c(nn2)-c2ccccc2C3=O)cc1`, the Toxicity in the assay on Schistosoma mansoni [1], in the assay on Schistosoma mansoni [2] and in the assay with Schistosoma mansoni [3] was 0 throughout.
Consider `Oc1c(C(Nc2ccccn2)c2cccc(Oc3ccccc3)c2)ccc2cccnc12` (stereo not given), for which the Toxicity in the assay on Schistosoma mansoni [1] is recorded as 4; in the assay with Schistosoma mansoni [2], 4; with Schistosoma mansoni [3] it was 0.
For `Cc1sc2ncnc(Sc3nc4ccccc4[nH]3)c2c1C`, the Toxicity in the assay on Schistosoma mansoni [1] turned out to be 0; in the assay on Schistosoma mansoni [2], 1; in the assay on Schistosoma mansoni [3], 1.
On to `O=C(NC1CCCC1)c1ccc(N2CCC(NCc3cccc(C(F)(F)F)c3)CC2)cc1`, for which the Toxicity turned out to be 1 with Schistosoma mansoni [1], 0 in the assay with Schistosoma mansoni [2] and 0 in the assay on Schistosoma mansoni [3].
For `COc1ccc2c(=O)cc(C(Cl)(Cl)Cl)oc2c1`, the figures for the Toxicity in the assay on Schistosoma mansoni [1], in the assay with Schistosoma mansoni [2] and in the assay on Schistosoma mansoni [3] were 3, 0 and 0, respectively.
In the case of `COc1ccc(C(=O)NC(c2ccccc2Cl)c2cc(Cl)c3cccnc3c2O)cc1` (stereo not given), the Toxicity is on record as 4 with Schistosoma mansoni [1], 2 with Schistosoma mansoni [2] and 0 with Schistosoma mansoni [3].
On to `COc1ccccc1N1CCN(C(CNS(=O)(=O)c2ccc(Cl)cc2)c2cccnc2)CC1` (stereo not given), for which the Toxicity with Schistosoma mansoni [1], in the assay with Schistosoma mansoni [2] and in the assay on Schistosoma mansoni [3] was 0 throughout.
Take `COc1ccc2sc(N(Cc3cccnc3)C(=O)c3ccc(C#N)cc3)nc2c1`: the Toxicity with Schistosoma mansoni [1], in the assay on Schistosoma mansoni [2] and with Schistosoma mansoni [3] was 0 each time.
Consider `CCOc1cc2c(cc1OCC)C(c1cc(Cl)ccc1O)NCC2` (stereo not given), for which the Toxicity is given as 0 in the assay on Schistosoma mansoni [1], 1 with Schistosoma mansoni [2] and 0 in the assay on Schistosoma mansoni [3].
For `CCOc1cc2c(cc1OCC)C(c1cc(C)c(O)c(C)c1)NCC2.Cl` (stereo not given), the Toxicity in the assay on Schistosoma mansoni [1] turned out to be 0; in the assay with Schistosoma mansoni [2], 0; in the assay on Schistosoma mansoni [3], 2.
For the compound `O=C(Nc1ccc(N2CCN(Cc3ccccc3)CC2)cc1)c1cccs1.O=C(O)C(F)(F)F`, the Toxicity in the assay with Schistosoma mansoni [1], with Schistosoma mansoni [2] and with Schistosoma mansoni [3] was 0 in each case.
As to `CCN(Cc1ccccc1)C1CCN(Cc2cc(Br)ccc2O)CC1.O=C(O)C(=O)O`, the Toxicity in the assay with Schistosoma mansoni [1], in the assay on Schistosoma mansoni [2] and in the assay on Schistosoma mansoni [3] was 0 each time.
Turning to `COc1ccc(C(=O)NC(c2ccc(Cl)cc2Cl)c2cc(Cl)c3cccnc3c2O)cc1` (stereo not given), the Toxicity in the assay with Schistosoma mansoni [1], with Schistosoma mansoni [2] and in the assay on Schistosoma mansoni [3] was 0 throughout.
In the case of `OC1=C2C(=Nc3ccccc3SC2c2ccc(Br)cc2)c2ccccc21` (stereo not given), the Toxicity with Schistosoma mansoni [1] was determined as 0; in the assay on Schistosoma mansoni [2], 0; in the assay on Schistosoma mansoni [3], 1.
Consider `CCN(CC)CCNc1ncnc2c1[nH]c1ccc(Cl)cc12`, for which the Toxicity in the assay on Schistosoma mansoni [1], in the assay with Schistosoma mansoni [2] and in the assay with Schistosoma mansoni [3] was 0 each time.
In the case of `CCOc1ccc2nc(C)cc(Nc3ccc(Br)cc3)c2c1`, the Toxicity in the assay with Schistosoma mansoni [1] was 4; with Schistosoma mansoni [2], 4; with Schistosoma mansoni [3], 2.
Regarding `Oc1ccc(Cl)cc1CNc1nc2ccccc2[nH]1`, the Toxicity with Schistosoma mansoni [1], with Schistosoma mansoni [2] and with Schistosoma mansoni [3] was 0 in each case.
With `CCOC(=O)c1c(NC(=O)c2ccccc2)sc2c(O)c(CN(CC)CC)ccc12`, the Toxicity in the assay with Schistosoma mansoni [1], in the assay on Schistosoma mansoni [2] and in the assay with Schistosoma mansoni [3] was 0 in each case.
With `CCOc1ccc(Nc2ccnc3cc(Cl)ccc23)cc1`, the Toxicity in the assay on Schistosoma mansoni [1] amounted to 0; in the assay on Schistosoma mansoni [2], 0; in the assay on Schistosoma mansoni [3], 2.
As for `FC(F)(F)c1ccc(Nc2nnnc3ccccc23)cc1`, the Toxicity in the assay on Schistosoma mansoni [1] stood at 0; in the assay on Schistosoma mansoni [2] it was 0; in the assay on Schistosoma mansoni [3] it was 1.
Consider `COc1cccc(Cn2c(Oc3ccccc3)nc3c2c(=O)n(C)c(=O)n3C)c1`, for which the Toxicity in the assay on Schistosoma mansoni [1], in the assay with Schistosoma mansoni [2] and with Schistosoma mansoni [3] was 0 throughout.
For the compound `C=C(C)CCC(C)N1CCC(N2CCC(C(=O)NCCc3ccccc3)CC2)CC1` (stereo not given), the Toxicity was 2 with Schistosoma mansoni [1], 0 with Schistosoma mansoni [2] and 0 with Schistosoma mansoni [3].
As for `Clc1ccc2[nH]c3c(NCCCN4CCOCC4)ncnc3c2c1`, the Toxicity with Schistosoma mansoni [1], with Schistosoma mansoni [2] and in the assay on Schistosoma mansoni [3] was 0 each time.
For the compound `CCCc1cc(O)c2c3c(c(=O)oc2c1)CN(C)CC3`, the Toxicity in the assay with Schistosoma mansoni [1], with Schistosoma mansoni [2] and in the assay on Schistosoma mansoni [3] was 0 in each case.
Turning to `CN(C)c1ccc(N2C(N)=NC(N)=NC2(C)C)cc1`, the Toxicity in the assay on Schistosoma mansoni [1], in the assay on Schistosoma mansoni [2] and with Schistosoma mansoni [3] was 0 in each case.
On to `COc1ccc2c(c1)OC(O)(C(F)(F)C(F)(F)F)CC2=O` (stereo not given), for which the Toxicity with Schistosoma mansoni [1], in the assay on Schistosoma mansoni [2] and with Schistosoma mansoni [3] was 0 each time.
Regarding `CCOc1c(Cl)cc(CNCC(O)c2ccccc2)cc1OC` (stereo not given), the Toxicity in the assay on Schistosoma mansoni [1], in the assay with Schistosoma mansoni [2] and in the assay with Schistosoma mansoni [3] was 0 throughout.
For `COc1ccccc1C(=O)ON=C(N)Cc1cccc2ccccc12`, the Toxicity is on record as 3 with Schistosoma mansoni [1], 3 in the assay with Schistosoma mansoni [2] and 1 in the assay with Schistosoma mansoni [3].
As to `Fc1ccc2[nH]c3c(NCCCN4CCOCC4)ncnc3c2c1`, the Toxicity amounted to 1 in the assay with Schistosoma mansoni [1], 0 in the assay with Schistosoma mansoni [2] and 0 with Schistosoma mansoni [3].
